Laboratory results as given in patent publication US11666597B2, “Water-activated mucoadhesive compositions to reduce intestinal absorption of nutrients” (The Brigham and Women's Hospital, Inc., priority 2015, dated 2023).

Experiments:
[1] = Aluminum release in simulated gastrointestinal fluids; format: physicochemical
[2] = Thickness of paste layer on mucus-coated cellulose nitrate membrane
Protocol: Five hundred milligrams of AF-LuCI (excess) was added onto mucus-coated cellulose nitrate membrane (disk shape with 2 cm diameter) and DDW (pH 5.5), SGF (pH 1.0), or SIF (pH 6.5) was added immediately. After AF-LuCI becomes a paste and flow to form a layer (3-5 minutes), supernatant was removed and the paste-coated membrane was quickly frozen in −80° C. freezer to measure the thickness. The thickness of the mucus-coated cellulose nitrate membrane without AF-LuCI was separately measured as a baseline.

[3] = Glucose barrier test on mucin-coated membrane in Franz cell; design: species or system porcine
Protocol: To examine the barrier properties of pastes formed from the new hydratable compositions in vitro, a mucin-coated membrane was prepared to mimic the mucus surface of the intestine. Specifically, a cellulose nitrate membrane (pore size: 0.2 μm, Whatman, Germany) was incubated in a 3% w/v porcine stomach mucin (SigmaAldrich, USA) solution in PBS (pH 7.4) and gently shaken for 2 hours at room temperature. The membrane was washed with distilled deionized water (DDW, pH 5.5) to remove the excess mucin solution. The mucin-coated membranes were used within 1 hour following preparation.
To measure the thickness of the mucin layer, the mucin-coated membrane was lyophilized and imaged using scanning electron microscope (SEM) and the thickness of randomly selected positions was examined (average mucin layer thickness: ˜100 μm). To test the nutrient barrier properties, 10 mg of sucralfate or AF-LuCI was added evenly to a mucin-coated membrane and vertically tilted for 1 minute. […]
The permeation tests were performed in triplicate for each material. The glucose concentration was measured using high performance liquid chromatography (HPLC, Agilent, USA) with an analytical C18 column (Zorbax Eclipse XDB-C18, Agilent). […]

[4] = Degree of polymerization of PAC by titration; format: physicochemical; conditions: native sucralfate
Protocol: Experiments were performed to determine the degree of polymerization in AF-LuCI by using the titration-based methods as described in Nail, S. L., White, J. L. & Hem, S. L. Structure of Aluminum Hydroxide Gel I: Initial Precipitate. Journal of Pharmaceutical Sciences 65, 1188-1191 (1976); and Hem, J. D. & Roberson, C. E. Form and stability of aluminum hydroxide complexes in dilute solution. Geol Surv Water-Supply Pap(US)(United States) (1967). The degree of polymerization of PACs in AF-LuCI and sucralfate molecule was determined using titration method based on the reversible protonation of hydroxo linkages in the PAC backbone. Approximately 10 mg of AF-LuCI were treated with 0.1N, 0.2N, 0.3N, 0.4N and 0.5N HCl solutions in different tubes. The samples were vortexed for 5 seconds followed by 1-hour incubation. The supernatant of each sample was then collected and the pH was measured using a pH meter. The same procedures were performed with sucralfate. The pH of the HCl solutions was measured as the control group and the difference between the control and the treated groups was calculated. The difference in pH corresponds to the proton consumption and the amount of hydroxo linkages that were then used to calculate the number of aluminum per molecule.

[5] = Dissolution in NaCl solutions; format: physicochemical; conditions: saturated NaCl solutions (~0.35 g/ml in water)
Excerpt: […] This is a characteristic behavior of liquid complex coacervate system (See Wang, Q. & Schlenoff, J. B. The Polyelectrolyte Complex/Coacervate Continuum. Macromolecules 47, 3108-3116 (2014); de Kruif, C. G., Weinbreck, F. & de Vries, R. Complex coacervation of proteins and anionic polysaccharides. Current Opinion in Colloid & Interface Science 9, 340-349 (2004); Veis, A. & Aranyi, C. PHASE SEPARATION IN POLYELECTROLYTE SYSTEMS. I. COMPLEX COACERVATES OF GELATIN. J. Phys. Chem. 64, 1203-1210 (1960)).

Sprague-Dawley (SD) rats = experiment: microCT imaging of coating in the GI tract after gavage; format: in vivo; conditions: gavage into the stomach, AF-LuCI 450 mg/kg rat, imaged after 1 hr
Protocol: Sprague-Dawley (SD) rats were gavaged into the stomach with hydrated AF-LuCI pastes and imaged using micro-computed tomography (microCT). AF-LuCI pastes could be visualized on gastro-intestinal tissues without additional contrast agents owing to the presence of aluminum. For these experiments, rats were fasted overnight and gavaged directly into the stomach with 450 mg/kg rat of AF-LuCI paste hydrated in 0.9 w/v % normal saline solution. After 1 hr and 5 hr, the rats were anesthetized using isoflurane and imaged using microCT. […] FIG. 18A is a coronal plane view of SD rats gavaged with AF-LuCI 1 hr before the imaging. AF-LuCI formed a layer in stomach, duodenum and proximal intestine. FIGS. 18B and 18C are 3-dimensional views of SD rats gavaged with AF-LuCI (FIG. 18B) 1 hr and (FIG. 18C) 5 hr before the microCT imaging. AF-LuCI is attached on stomach, duodenum and proximal intestine at least for 5 hrs after gavage while sucralfate only formed sparsely scattered aggregates on the healthy mucosa

[6] = test system: normal Sprague-Dawley (SD) rats; experiment: OGTT with sucralfate; format: in vivo, rat
Excerpt: In contrast, sucralfate selectively binds to ulcerated mucosa where the bicarbonate secretion is malfunctioned (i.e. acidic), while on bicarbonate-neutralized healthy mucosa sucralfate forms loosely bound discrete solid aggregates attached on the surface rather than forming a continuous layer. […] The neutralized pH on mucus surfaces also compromised the barrier function of sucralfate due to the change of rheological properties.

[7] = native sucralfate, USP specification; cited from earlier work

release of original aluminum content ([1]; exposed to an acidic fluid, e.g. gastric fluid, for AF-LuCI relative to the aluminum content of commercial sucralfate): about 15.0 w/w %
release of aluminum ([1]; simulated gastric fluid (SGF, pH 1.0)): 15 w/w % of total aluminum content
thickness of layer ([2]; SGF (pH 1.0)): ~250 μm
layer formation ([2]; distilled water or SIF): did not form any layer
number of aluminum ions per molecule (degree of polymerization of PAC) [4]: 56.1±3.0 aluminum per molecule
fraction dissolved [5]: Less than 5 w/w %
Substance: sucralfate
glucose penetration blocked ([3]; SGF, 10 mg on membrane, 120 g/L glucose, 5 minutes): ~60%
glucose blocked ([3]; applied on mucus-coated membrane in pH 1.0, then solution of pH 4.0 added): 16.5%
layer formation in the GI tract (microCT) (Sprague-Dawley (SD) rats): did not form a layer
area under curve (AUC) in OGTT versus saline treated group [6]: no significant difference
USP regulation on the aluminum content [7]: 15.5-18.5 w/w % of the total weight
